Experimental data published in ChEMBL document CHEMBL5512671, “Structure-Based Optimization of Novel Sterol 24-C-Methyltransferase Inhibitors for the Treatment of Candida albicans Infections” (J Med Chem, 2024).
Activity calls are given as the source filed them. No cut-off for these calls is given here.

Tests used:
Candida albicans [1] = assay: Fungistatic activity against Candida albicans SC5314 at 1 ug/ml incubated for 3 hrs in presence of tridemorph by SYTOX staining based analysis; assay type: functional, organism-based; settings: dose 1.0 µg/ml
[2] = target: T1, Sterol 24-C-methyltransferase (Candida albicans (strain SC5314 / ATCC MYA-2876) (Yeast)) (UniProt O74198); assay: Inhibition of Candida albicans SC5314 Erg6 assessed as fold increase in zymosterol content at 1 ug/ml incubated for 12 hrs by GC-MS analysis; settings: dose 1.0 µg/ml
T1 sequence (whole entry): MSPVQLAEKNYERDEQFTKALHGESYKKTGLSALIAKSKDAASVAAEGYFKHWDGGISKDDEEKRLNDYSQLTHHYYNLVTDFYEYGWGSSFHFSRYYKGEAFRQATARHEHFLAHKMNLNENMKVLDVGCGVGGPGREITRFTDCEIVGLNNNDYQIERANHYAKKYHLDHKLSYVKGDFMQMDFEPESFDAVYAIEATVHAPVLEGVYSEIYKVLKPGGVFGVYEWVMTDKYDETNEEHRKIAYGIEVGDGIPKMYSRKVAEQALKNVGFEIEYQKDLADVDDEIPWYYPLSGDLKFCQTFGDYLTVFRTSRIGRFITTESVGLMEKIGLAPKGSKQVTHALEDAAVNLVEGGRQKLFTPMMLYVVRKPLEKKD

Candida albicans [3] = assay: Inhibition of cell adhesion in Candida albicans SC5314 to human HGE cells measured after 90 mins by fluorescence microscopy based analysis; assay type: functional; settings: dose 0.5-2 µg/ml
[Candida] auris [4] = Antifungal activity against Candida auris CBS12774 assessed as inhibition of hyphae formation at 1 ug/ml measured after 6 hrs by microscopy based analysis; assay type: functional, organism-based; settings: Candidozyma auris, dose 1.0 µg/ml
[Candida] auris [5] = Antifungal activity against Candida auris CBS12774 assessed as effect on cell size at 1 ug/ml measured after 6 hrs by microscopy based analysis; assay type: functional, organism-based; settings: Candidozyma auris, dose 1.0 µg/ml
Candida albicans [6] = assay: Antifungal activity against Candida albicans SC5314 assessed as inhibition of hyphae growth measured after 6 hrs cultured under RPMI1640 medium by microscopy based analysis; assay type: functional, organism-based; settings: dose 0.25-1 µg/ml
Candida albicans [7] = assay: Antibiofilm activity against Candida albicans CA14-TDH3-GFP at 0.5 to 2 ug/ml incubated for 24 hrs by XTT reduction assay; assay type: functional, organism-based; settings: dose 0.5-2 µg/ml
Nakaseomyces glabratus = assay: Antifungal activity against Candida glabrata CG2 assessed as effect on cell structure at 1 ug/ml measured after 6 hrs by microscopy based analysis; assay type: functional, organism-based; settings: dose 1.0 µg/ml
Candida albicans [8] = assay: Antifungal activity against Candida albicans SC5314 infected in Balb/C mouse candidiasis model assessed as decrease in skin fungal burden by measuring fold change at 0.5% administered topically and measured after 72 hrs; assay type: functional
[9] = Cytotoxicity against human BEAS-2B cells incubated for 48 hrs by CCK-8 method; assay type: toxicity, cell-based
Candida albicans [10] = assay: Downregulation of ECE1 expression in Candida albicans SC5314 at 1 ug/ml incubated for 6 hrs by qPCR analysis; assay type: functional; settings: dose 1.0 µg/ml
Candida albicans [11] = assay: Downregulation of ALS3 expression in Candida albicans SC5314 at 1 ug/ml incubated for 6 hrs by qPCR analysis; assay type: functional; settings: dose 1.0 µg/ml
Candida albicans [12] = assay: Synergistic antifungal activity against Candida albicans SC5314 assessed as fractional inhibitory concentration index incubated for 24 hrs in presence of terbinafine by broth microdilution checkerboard assay; assay type: functional
Candida parapsilosis = assay: Antifungal activity against Candida parapsilosis CP1 assessed as effect on cell size at 1 ug/ml measured after 6 hrs by microscopy based analysis; assay type: functional, organism-based; settings: dose 1.0 µg/ml
[13] = target: T1, Sterol 24-C-methyltransferase (Candida albicans (strain SC5314 / ATCC MYA-2876) (Yeast)); assay: Thermal stabilization of recombinant Candida albicans SC5314 Erg6 transfected in Escherichia coli BL21 (DE3) at 0.5 ug/ml incubated for 30 mins at 43 to 57 degreeC by Western blot analysis; settings: dose 0.5 µg/ml
Candida albicans [14] = assay: Antifungal activity against Candida albicans SC5314 infected in Balb/C mouse candidiasis model assessed as filamentation defect at 0.5 % administered topically and measured after 72 hrs by PAS staining based analysis; assay type: functional, organism-based
Candida albicans [15] = assay: Synergistic antifungal activity against Candida albicans SC5314 assessed as fractional inhibitory concentration index incubated for 24 hrs in presence of tridemorph by broth microdilution checkerboard assay; assay type: functional
[Candida] auris [16] = Antifungal activity against Candida auris CBS12774 assessed as effect on cell structure at 1 ug/ml measured after 6 hrs by microscopy based analysis; assay type: functional, organism-based; settings: Candidozyma auris, dose 1.0 µg/ml
Candida albicans [17] = assay: Antifungal activity against Candida albicans SC5314 assessed as inhibition of hyphae growth measured after 5 days cultured under YPD embedded agar medium and 10mM GlcNAc by microscopy based analysis; assay type: functional, organism-based; settings: dose 0.25-1 µg/ml, time 5.0 day
Candida albicans [18] = assay: Antifungal activity against Candida albicans SC5314 infected in Balb/C mouse candidiasis model assessed as appearance of inflammatory infiltrates at 0.5 % administered topically and measured after 72 hrs in presence of tridemorph by H and E staining based analysis; assay type: functional, organism-based

In the case of `Cc1c(-n2c(-c3ccc4ccccc4c3)cs/c2=N\c2ccccc2)c(=O)n(-c2ccccc2)n1C`, the Activity (Candida albicans [1]) is reported as “Active”, the fold change (FC) [2] is reported as 11 and the inhibition (Candida albicans [3]) is reported as “Dose-Dependent Effect”. For the same compound, the Activity ([Candida] auris [4]) was “Active”, the Activity ([Candida] auris [5]) was “inactive” and the Activity (Candida albicans [6]) was “Dose-Dependent Effect”. The Activity (Candida albicans [7]) was “Active”, the Activity (Nakaseomyces glabratus) was “inactive” and the “fold change (FC)” value (Candida albicans [8]) was 2.86. For the same compound, the EC50 at 48 h [9] was > 50 µg/mL, the Activity (Candida albicans [10]) was “Active” and the Activity (Candida albicans [11]) was “Active”. The “fractional inhibitory concentration index (FICI)” value (Candida albicans [12]) was <0.1, the Activity (Candida parapsilosis) was “inactive” and the Activity [13] was “Active”. The Activity (Candida albicans [14]) was “Active”, the “fractional inhibitory concentration index (FICI)” value (Candida albicans [15]) was <0.1 and the Activity ([Candida] auris [16]) was “inactive”. The Activity (Candida albicans [17]) was “Dose-Dependent Effect” and the Activity (Candida albicans [18]) was “inactive”.
